# Results taken from patent publication US20240156847A1 (priority 2022, published 2024).
# Experiments:
# PRV-GFP strain = format: cell-based, Pseudorabies virus
# [1] = tested on: PRV gE protein (PRV-HeNLH/2017 strain); format: cell-based, Pseudorabies virus
# PRV-HeNLH/2017 strain = format: cell-based, Pseudorabies virus
smiles,measurement,setting,value
O=C(O)[C@H]1O[C@@H](Oc2cc3oc(-c4ccccc4)cc(=O)c3c(O)c2O)[C@H](O)[C@@H](O)[C@@H]1O [baicalin],inhibition of proliferation of PRV-GFP strain (green fluorescence),PRV-GFP strain,"inhibited the proliferation of PRV-GFP strains at the using concentrations, and the inhibitory effect was more significant at 62.5 and 125 μM"
same,inhibition of expression of PRV gE protein,[1],significantly inhibited the expression of PRV gE protein
same,"inhibition of PRV proliferation (virus titer, TCID50)",PRV-HeNLH/2017 strain,significantly inhibited the proliferation of PRV on PK-15 cells
same,effect on cell viability (cytotoxicity),PK-15 cells,no significant effect on cell viability
